US8367116B2, “Buoyant polymer particles for delivery of therapeutic agents to the central nervous system” (Seacoast Neuroscience, Inc., priority 2002, dated 2013)

Tests used:
[1] = system: rat middle cerebral artery occlusion (MCAo) stroke model; assay: Rat MCAo stroke model, drugs delivered into the ventricle (CSF) by osmotic pump (FIG. 4, FIG. 5); type: in vivo, Sprague-Dawley rat; conditions: given within the CSF
Description: The parietal branch of the middle cerebral artery of the Sprague-Dawley rat is permanently occluded with a 10-0 nylon suture. The common carotid arteries are occluded temporarily for one hour. All drugs and vehicle are given beginning two hours post ischemia. Rats are sacrificed 24-hours later and the size of the infarct measured as a percent infarction of the total volume of the brain (mm^3) using imaging analysis. […], drugs are administered into the ventricle using an Alza osmotic pump (#20010) at a flow rate of 8 ul/hr over 24 hours.
Animals were treated with vehicle (n=23), Antioxidant (n=8), Prodrug (n=7) or an NMDA antagonist (n=7).

[2] = cited from earlier work
[3] = system: corticospinal tract axons; assay: Severed corticospinal tract model, inosine infused into the motor cortex, axon tracing; type: in vivo, rats; conditions: after 14 days of treatment
Source text: In one model, one side of the corticospinal tract in rats is severed as it courses through the brainstem. Inosine is then infused directly into the motor cortex of the brain, the site of origin for those axons descending into the non-injured side of the corticospinal tract. After 14 days of treatment, newly grown axon branches are traced by injecting a dye into the treated nerve cells in the cortex. Animals are then sacrificed and the spinal cord examined for histology evidence of new axon growth. […] These new axonal branches then continued to descend down the injured side of the corticospinal tract, effectively replacing severed axons with new ones. […] The number of collateral (new) axons ranged up to 2,500 per treated animal, compared to 28-170 axons seen in control animals.

[4] = system: rats with unilateral cortical infarcts (stroke); conditions: cited from earlier work
[5] = adult rats with unilateral cortical infarcts

Row | Structure (SMILES) | dose response on infarct [1] | citicholine dose taken up into brain tissue ([2]; administered i.v.) | citicholine dose penetrating into brain tissue ([2]; administered orally) | initial dose found in the brain ([2]; given through the blood stream) | collateral sprouting of axons from uninjured to injured side of corticospinal tract ([3]; almost all treated animals) | number of collateral (new) axons per treated animal ([3]; control animals 28-170 axons) | GAP-43 stained newly growing axons on the denervated side ([4]; FIG. 7 B, E, after stroke) | axons crossing from undamaged side of brain to denervated side of spinal cord ([4]; FIG. 7 D, after stroke) | new projections to denervated areas of midbrain and spinal cord [4, 5] | performance on behavioral measures [4, 5] | recovery of limb function ([4]; intravenous administration, same animal model)
1 | C[N+](C)(C)CCOP(=O)(O)OP(=O)([O-])OC[C@H]1O[C@@H](n2ccc(N)nc2=O)[C@H](O)[C@@H]1O [Citicholine, Cytidine-5′-diphosphocholine] | dose response effect | about 2% | about 0.5% | less than 1% | – | – | – | – | – | – | –
2 | OC[C@H]1O[C@@H](n2cnc3c(O)ncnc32)[C@H](O)[C@@H]1O [Inosine] | – | – | – | – | extensive collateral sprouting of axons | up to 2,500 | many | causes many axons (red) to cross over | stimulated neurons on the undamaged side of the brain to extend new projections | improved performance | little or no significant recovery
